From patent US20100008971A1, “CHEWING COMPOSITION COMPRISING COENZYME Q10” (SAN-EI GEN F.F.I., INC., priority 2006, published 2010) come the findings set out here.

The nature of data set [1]: Release of Coenzyme Q10 into saliva from stick gums chewed by four subjects (HPLC of chewed gum). Type of data set: in vivo, human. Particulars: 0.048 wt % CoQ10 in gum, 1 g chewed 5 min, 60 times/min. As for the experimental part: Using one of Samples 1 to 5 obtained above, raw materials were blended according to the formulation shown below such that the content of Coenzyme Q10 in 100 g of the resulting stick gum would be 48 mg, and each mixture was molded to form a stick gum. Specific procedures are as follows: A gum base was first kneaded at 70° C. with sugar, corn syrup and glycerol, and the mixture was blended with Lemon Oil No. 2451* (flavoring agent) and San Yellow^‡ No. 3* (colorant). One each of Samples 1, 2, 3, 4 or 5 was then added to the resulting mixture. After cooling to room temperature, each material was rolled and molded to prepare a chewing gum (stick gum). The gum base used in the following formulation was purchased from Lotte, Co., Ltd. (Gum Base LT1).
Each type of the stick gums thus prepared was sampled in a precise amount of 4 g, and placed in a stoppered centrifuge tube. To the tube was added 10 ml of a 20% (v/v) tetrahydrofuran aqueous solution. The tube was then equipped with a Dimroth condenser, and the solution was refluxed, while occasionally mixing it by shaking, in a hot bath at 82° C. for 30 minutes. The refluxed solution was then cooled to room temperature, and 15 ml of diethyl ether was added, followed by extraction with shaking for 10 minutes. […]
The proportion of Coenzyme Q10 released into saliva was determined based on Equation 1: […]

Data set [2] is described as follows: Release of Coenzyme Q10 into saliva from sugar-coated gums with the sample in the sugar coating, chewed by four subjects. The format is in vivo, human. The conditions noted are these: sugar-coated gum, 0.020 wt % CoQ10 in gum, one piece (1.5 g) chewed 5 min, 60 times/min. As for the experimental part: Sugar-coated gums (1.5 g/tablet) each comprising Coenzyme Q10 in the sugar coating were prepared in the manner described below such that the content of Coenzyme Q10 in 100 g of the sugar-coated gum was 20 mg.
A gum base (trade name: Gum Base LT2, manufactured by Lotte, Co., Ltd.) was kneaded at 70° C. with xylitol, corn syrup and glycerol, and after the addition of Lemon Oil No. 2451* (flavoring agent), the mixture was cooled to room temperature and molded to a tablet shape.
Maltitol and gum arabic were added to water and dissolved by heating. After cooling the mixture to room temperature, one each of Sample 1, 2, 4, 5 or 6 was added and mixed homogeneously.
The sugar solutions thus obtained were each spray dried over the gum centers using a coating pan and dried. The proportion of the sugar-coating layer was 50 parts by weight to 100 parts by weight of the gum center. […]
Each type of the sugar-coated gums prepared above were sampled in a precise amount of 6 g (total weight of four pieces), and one piece each of these gums was chewed by four subjects under the same conditions as in Test Example 1. […] The samples were subjected to HPLC under the same conditions to determine the contents of Coenzyme Q10 in the chewed gums, and then the release of Coenzyme Q10 into saliva from these gums was evaluated as in Test Example 1.

Structures are written as SMILES.

In the case of `COC1=C(OC)C(=O)C(C/C=C(\C)CC/C=C(\C)CC/C=C(\C)CC/C=C(\C)CC/C=C(\C)CC/C=C(\C)CC/C=C(\C)CC/C=C(\C)CC/C=C(\C)CCC=C(C)C)=C(C)C1=O` [Sample 5, Coenzyme Q10], the “Release (%) of Coenzyme Q10 into saliva” value was determined as 0% in data set [1] and 30.0% in data set [2].
